Experimental data as given in publication PMC8213057, “Targeting ALK2: An Open Science Approach to Developing Therapeutics for the Treatment of Diffuse Intrinsic Pontine Glioma” (Journal of Medicinal Chemistry, 2020).

Columns and labels:
PDK1/PDPK1 = target: T1, PDK1/PDPK1 (Homo sapiens, UniProt O15530); details: 1 μM; Run 1, Run 2
T1 sequence (O15530 1-556): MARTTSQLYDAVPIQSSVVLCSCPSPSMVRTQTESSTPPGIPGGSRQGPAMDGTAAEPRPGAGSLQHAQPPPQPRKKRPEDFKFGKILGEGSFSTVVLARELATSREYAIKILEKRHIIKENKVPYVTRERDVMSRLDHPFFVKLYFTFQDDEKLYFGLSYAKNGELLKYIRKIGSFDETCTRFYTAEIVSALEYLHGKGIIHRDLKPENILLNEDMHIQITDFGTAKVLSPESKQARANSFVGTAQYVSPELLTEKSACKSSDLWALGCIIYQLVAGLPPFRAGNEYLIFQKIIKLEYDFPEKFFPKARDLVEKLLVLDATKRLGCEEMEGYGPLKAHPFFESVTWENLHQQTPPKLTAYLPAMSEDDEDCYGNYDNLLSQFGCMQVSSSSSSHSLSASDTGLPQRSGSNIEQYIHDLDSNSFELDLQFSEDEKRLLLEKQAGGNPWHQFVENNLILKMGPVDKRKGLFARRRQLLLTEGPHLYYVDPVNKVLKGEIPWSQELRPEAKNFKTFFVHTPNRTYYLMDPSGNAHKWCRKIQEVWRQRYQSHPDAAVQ

ARK5/NUAK1 = target: T2, ARK5/NUAK1 (Homo sapiens, UniProt O60285); assay: biochemical; details: read-out: % enzyme activity, 1 μM; Run 1, Run 2
T2 sequence (O60285 1-661): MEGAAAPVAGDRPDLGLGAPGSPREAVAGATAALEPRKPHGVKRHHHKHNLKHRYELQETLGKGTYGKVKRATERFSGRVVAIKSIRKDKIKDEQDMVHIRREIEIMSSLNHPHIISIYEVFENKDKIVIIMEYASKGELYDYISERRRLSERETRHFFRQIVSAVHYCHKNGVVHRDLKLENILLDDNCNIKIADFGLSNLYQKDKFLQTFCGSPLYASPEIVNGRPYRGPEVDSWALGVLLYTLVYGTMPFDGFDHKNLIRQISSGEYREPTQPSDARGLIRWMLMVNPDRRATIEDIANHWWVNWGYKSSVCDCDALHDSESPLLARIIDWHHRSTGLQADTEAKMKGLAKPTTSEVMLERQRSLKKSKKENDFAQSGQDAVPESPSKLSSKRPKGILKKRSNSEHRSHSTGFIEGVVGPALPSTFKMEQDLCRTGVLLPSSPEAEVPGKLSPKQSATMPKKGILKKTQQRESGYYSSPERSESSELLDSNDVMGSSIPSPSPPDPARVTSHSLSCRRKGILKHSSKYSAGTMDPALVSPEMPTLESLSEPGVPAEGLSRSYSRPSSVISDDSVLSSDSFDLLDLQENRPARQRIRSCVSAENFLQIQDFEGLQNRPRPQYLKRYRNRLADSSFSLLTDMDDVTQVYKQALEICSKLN

TEC = target: T3, TEC (Homo sapiens, UniProt P42680); details: 1 μM; Run 1, Run 2
T3 sequence (P42680 1-631): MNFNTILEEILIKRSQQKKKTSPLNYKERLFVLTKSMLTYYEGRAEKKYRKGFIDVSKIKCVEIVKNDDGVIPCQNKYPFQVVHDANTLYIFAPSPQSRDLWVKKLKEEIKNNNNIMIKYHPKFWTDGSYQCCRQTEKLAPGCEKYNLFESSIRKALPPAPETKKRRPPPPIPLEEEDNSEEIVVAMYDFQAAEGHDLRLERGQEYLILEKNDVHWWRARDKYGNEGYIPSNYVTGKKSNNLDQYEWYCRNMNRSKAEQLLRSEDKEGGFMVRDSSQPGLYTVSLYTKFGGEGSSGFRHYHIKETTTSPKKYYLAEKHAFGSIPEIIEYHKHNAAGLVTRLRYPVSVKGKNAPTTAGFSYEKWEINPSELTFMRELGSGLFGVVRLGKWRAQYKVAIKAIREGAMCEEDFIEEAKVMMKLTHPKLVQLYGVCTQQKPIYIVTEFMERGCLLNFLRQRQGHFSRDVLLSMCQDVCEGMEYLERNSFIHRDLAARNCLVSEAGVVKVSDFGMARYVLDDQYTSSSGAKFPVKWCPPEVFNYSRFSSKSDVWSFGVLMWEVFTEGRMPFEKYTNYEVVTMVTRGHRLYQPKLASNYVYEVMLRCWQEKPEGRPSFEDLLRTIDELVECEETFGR

ULK2 = target: T4, ULK2 (Homo sapiens, UniProt Q8IYT8); details: 1 μM; Run 1, Run 2
T4 sequence (Q8IYT8 1-1036): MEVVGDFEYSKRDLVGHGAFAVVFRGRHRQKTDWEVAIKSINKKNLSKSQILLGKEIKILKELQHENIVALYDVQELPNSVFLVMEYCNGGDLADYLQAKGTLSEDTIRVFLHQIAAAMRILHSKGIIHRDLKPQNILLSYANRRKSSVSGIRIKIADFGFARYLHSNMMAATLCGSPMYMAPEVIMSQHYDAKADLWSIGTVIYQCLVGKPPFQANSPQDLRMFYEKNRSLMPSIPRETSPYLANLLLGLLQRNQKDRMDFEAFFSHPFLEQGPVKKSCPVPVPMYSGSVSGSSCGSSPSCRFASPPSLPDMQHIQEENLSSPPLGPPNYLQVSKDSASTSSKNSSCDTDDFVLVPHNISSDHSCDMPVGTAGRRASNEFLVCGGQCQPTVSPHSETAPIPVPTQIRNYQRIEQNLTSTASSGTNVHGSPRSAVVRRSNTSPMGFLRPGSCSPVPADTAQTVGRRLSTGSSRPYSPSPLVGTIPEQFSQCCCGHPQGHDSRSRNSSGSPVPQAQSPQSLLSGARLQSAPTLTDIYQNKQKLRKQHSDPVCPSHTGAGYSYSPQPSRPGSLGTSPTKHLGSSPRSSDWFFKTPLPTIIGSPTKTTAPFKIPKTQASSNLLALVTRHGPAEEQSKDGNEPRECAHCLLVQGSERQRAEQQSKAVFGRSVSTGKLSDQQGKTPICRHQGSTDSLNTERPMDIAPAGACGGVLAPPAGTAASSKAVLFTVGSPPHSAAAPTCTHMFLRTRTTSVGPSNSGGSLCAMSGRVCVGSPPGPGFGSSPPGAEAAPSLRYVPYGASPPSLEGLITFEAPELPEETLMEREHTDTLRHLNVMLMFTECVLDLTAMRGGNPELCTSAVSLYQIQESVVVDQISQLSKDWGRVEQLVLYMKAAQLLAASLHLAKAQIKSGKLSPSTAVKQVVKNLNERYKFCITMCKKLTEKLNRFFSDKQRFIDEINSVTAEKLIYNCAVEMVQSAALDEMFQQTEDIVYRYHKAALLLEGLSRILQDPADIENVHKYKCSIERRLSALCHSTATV

For COc1cc(-c2cncc(-c3ccc(N4CCN(C)CC4)cc3)c2C)cc(F)c1C(N)=O [Compound 26a, 2-Fluoro-6-methoxy-4-(4-methyl-5-(4-(4-methylpiperazin-1-yl)phenyl)pyridin-3-yl)benzamide], the “% enzyme activity” value (PDK1/PDPK1) was 91.49%, the remaining activity at 1 µM (ARK5/NUAK1) was 97.6% and the “% enzyme activity” value (TEC) was 107.42%. For the same compound, the “% enzyme activity” value (ULK2) was 73.24%.
COc1cc(-c2cncc(-c3ccc(N4C[C@@H](C)N(C)[C@@H](C)C4)cc3)c2C)cc(F)c1C(N)=O [Compound 26c, 2-Fluoro-6-methoxy-4-(4-methyl-5-(4-((3R,5S)-3,4,5-trimethylpiperazin-1-yl)phenyl)pyridin-3-yl)benzamide] was tested, and the “% enzyme activity” value (PDK1/PDPK1) was 94.36%, the remaining activity at 1 µM (ARK5/NUAK1) was 96% and the “% enzyme activity” value (TEC) was 106.19%. For the same compound, the “% enzyme activity” value (ULK2) was 84.46%.
